The text below walks through data of patent publication US20230159445A1, “STAT INHIBITORY COMPOUNDS AND COMPOSITIONS” (JANPIX LIMITED, priority 2020, published 2023).

The test system of this assay is MV4-11 cells. In words: MV4-11 Cell Cytotoxicity Assay (CellTiter-Blue, 72 h). In kind it is cell-based, human. As to conditions: Homo sapiens, MV4-11; MV-4-11 cells. On the procedure: In some embodiments, the potency of the STAT5 inhibitors are evaluated by an in vitro assay such as MV4-11 Cell Cytotoxicity Assay. […] 10,000 cells were plated per well in 96-well flat-bottom sterile culture plates with low-evaporation lids. After 24 h, inhibitors and a vehicle control (0.5% DMSO) were added and the cells were incubated for 72 h at 37° C. in 5% CO2. Inhibitors were examined in triplicate at a maximal concentration of 50 μM, followed by 1:2 dilutions in subsequent wells (25, 12.5, 6.25, 3.125, 1.5625, 0.78125, 0.390625, 0.195313 and 0.097656 μM). After 72 h, the wells were treated with CellTiter-Blue® (20 μL/well), and the plates were incubated using standard cell culture conditions for 1 hour. Fluorescence was measured at 560/590 nm.
(The colour change of resazurin is a common sign of viable cells or microbes.)
For `CC(C)(C)c1cc(CN(C(=O)CN(Cc2ccccn2)S(=O)(=O)c2c(F)c(F)c(F)c(F)c2F)c2ccc(C(=O)O)c(O)c2)cc(C2CC2)c1` [Compound 1008, 4-(N-(3-(tert-butyl)-5-cyclopropylbenzyl)-2-(N-(pyridin-2-ylmethyl)-(2,3,4,5,6-pentafluorophenyl)sulfonamido)acetamido)-2-hydroxybenzoic acid], the half-maximal inhibitory concentration (IC50) – broadly, the midpoint of a concentration-inhibition curve – fell in the range of 3.16 to 100 µM.
As to `COc1c(CN(C(=O)CN(Cc2ccc(Cl)cc2)S(=O)(=O)c2c(F)c(F)c(F)c(F)c2F)c2ccc(C(=O)O)c(O)c2)cc(C(C)(C)C)cc1C1CC1` [Compound 1009, 4-(N-(5-(tert-butyl)-3-cyclopropyl-2-methoxybenzyl)-2-(N-(4-chlorobenzyl)-(2,3,4,5,6-pentafluorophenyl)sulfon-amido)acetamido)-2-hydroxybenzoic acid], the IC50 fell in the range of 3.16 to 100 µM.
`O=C(O)c1ccc(N(Cc2cc(OCC3CC3)cc(OCC3CC3)c2)C(=O)CN(Cc2ccc(Cl)cc2)S(=O)(=O)c2c(F)c(F)c(F)c(F)c2F)cc1O` [Compound 1011, 4-(N-(3,5-bis(cyclopropylmethoxy)benzyl)-2-(N-(4-chlorobenzyl)-(2,3,4,5,6-pentafluorophenyl)sulfon-amido)acetamido)-2-hydroxybenzoic acid] gave an IC50 of 3.16 to 100 µM.
Under `CC(C)(C)c1cc(CN(C(=O)CN(Cc2cccnc2)S(=O)(=O)c2c(F)c(F)c(F)c(F)c2F)c2ccc(C(=O)O)c(O)c2)cc(C2CC2)c1` [Compound 1013, 4-(N-(3-(tert-butyl)-5-cyclopropylbenzyl)-2-(N-(pyridin-3-ylmethyl)-(2,3,4,5,6-pentafluoro-phenyl)sulfonamido)acetamido)-2-hydroxybenzoic acid] stands 3.16 to 100 µM; under `CC(C)(C)c1cc(CN(C(=O)CN(Cc2ccc(Cl)cc2)S(=O)(=O)c2c(F)c(F)c(F)c(F)c2F)c2ccc(O)c(C(=O)O)c2)cc(C2CC2)c1` [Compound 1018, 5-(N-(3-(tert-butyl)-5-cyclopropylbenzyl)-2-(N-(4-chlorobenzyl)-(2,3,4,5,6-pentafluorophenyl)sulfon-amido)acetamido)-2-hydroxybenzoic acid], 3.16 to 100 µM.
`CC(C)(C)c1cc(CN(C(=O)CN(Cc2ccc(Cl)cc2)S(=O)(=O)c2c(F)c(F)c(F)c(F)c2F)c2ccc(C(C)(C)C(=O)O)cc2)cc(C2CC2)c1` [Compound 1019, 2-(4-(N-(3-(tert-butyl)-5-cyclopropylbenzyl)-2-(N-(4-chlorobenzyl)-(2,3,4,5,6-pentafluorophenyl)sulfon-amido)acetamido)phenyl)-2-methylpropanoic acid] showed an IC50 of 1 to 3.16 µM.
As for `O=C(O)c1ccc(N(Cc2cc(O)cc(OCC3CC3)c2)C(=O)CN(Cc2ccc(Cl)cc2)S(=O)(=O)c2c(F)c(F)c(F)c(F)c2F)cc1O` [Compound 1020, 4-(2-(N-(4-chlorobenzyl)-(2,3,4,5,6-pentafluorophenyl)sulfon-amido)-N-(3-(cyclopropylmethoxy)-5-hydroxybenzyl)acetamido)-2-hydroxybenzoic acid], the figure is 3.16 to 100 µM; as for `COc1ccc(CN(CC(=O)N(Cc2cc(C3CC3)cc(C(C)(C)C)c2)c2ccc(C(=O)O)c(O)c2)S(=O)(=O)c2c(F)c(F)c(F)c(F)c2F)cc1` [Compound 1026, 4-(N-(3-(tert-butyl)-5-cyclopropylbenzyl)-2-(N-(4-methoxybenzyl)-(2,3,4,5,6-pentafluoro-phenyl)sulfonamido)acetamido)-2-hydroxybenzoic acid], 3.16 to 100 µM; as for `COc1ccc(CN(CC(=O)N(Cc2cc(C3CC3)cc(C(C)(C)C)c2)c2ccc(C(=O)O)c(O)c2)S(=O)(=O)c2c(F)c(F)c(F)c(F)c2F)cc1F` [Compound 1027, 4-(N-(3-(tert-butyl)-5-cyclopropylbenzyl)-2-(N-(3-fluoro-4-methoxybenzyl)-(2,3,4,5,6-pentafluoro-phenyl)sulfonamido)acetamido)-2-hydroxybenzoic acid], 3.16 to 100 µM.
Take `COc1cc(CN(CC(=O)N(Cc2cc(C3CC3)cc(C(C)(C)C)c2)c2ccc(C(=O)O)c(O)c2)S(=O)(=O)c2c(F)c(F)c(F)c(F)c2F)ccc1F` [Compound 1028, 4-(N-(3-(tert-butyl)-5-cyclopropylbenzyl)-2-(N-(4-fluoro-3-methoxybenzyl)-(2,3,4,5,6-pentafluoro-phenyl)sulfonamido)acetamido)-2-hydroxybenzoic acid]: the IC50 is 1 to 3.16 µM.
As for `CC(C)(C)c1cc(CN(C(=O)CN(Cc2ccc(Cl)cc2)S(=O)(=O)c2c(F)c(F)c(F)c(F)c2F)c2ccc(O)c(O)c2)cc(C2CC2)c1` [Compound 1029, N-(3-(tert-butyl)-5-cyclopropylbenzyl)-2-(N-(4-chlorobenzyl)-(2,3,4,5,6-pentafluorophenyl)sulfonamido)-N-(3,4-dihydroxyphenyl) acetamide], the figure is 3.16 to 100 µM.
As for `CC(C)(C)c1cc(CN(C(=O)CN(Cc2ccc(Cl)cc2)S(=O)(=O)c2c(F)c(F)c(F)c(F)c2F)c2cc(O)cc(O)c2)cc(C2CC2)c1` [Compound 1030, N-(3-(tert-butyl)-5-cyclopropylbenzyl)-2-(N-(4-chlorobenzyl)-(2,3,4,5,6-pentafluorophenyl)sulfonamido)-N-(3,5-dihydroxyphenyl) acetamide], the figure is 3.16 to 100 µM; as for `CC(C)(C)c1cc(CN(C(=O)CN(Cc2ccc(Cl)cc2)S(=O)(=O)c2c(F)c(F)c(F)c(F)c2F)c2ccc(C(=O)NO)cc2)cc(C2CC2)c1` [Compound 1032, 4-(N-(3-(tert-butyl)-5-cyclopropylbenzyl)-2-(N-(4-chlorobenzyl)-(2,3,4,5,6-pentafluorophenyl)sulfon-amido)acetamido)-N-hydroxybenzamide], 3.16 to 100 µM; as for `CC(C)(C)c1cc(CN(C(=O)CN(Cc2cccc(O)c2)S(=O)(=O)c2c(F)c(F)c(F)c(F)c2F)c2ccc(C(=O)O)c(O)c2)cc(C2CC2)c1` [Compound 1035, 4-(N-(3-(tert-butyl)-5-cyclopropylbenzyl)-2-(N-(3-hydroxybenzyl)-(2,3,4,5,6-pentafluoro-phenyl)sulfonamido)acetamido)-2-hydroxybenzoic acid], 3.16 to 100 µM.
For the molecule `CC(C)(C)c1cc(CN(C(=O)CN(Cc2ccccc2O)S(=O)(=O)c2c(F)c(F)c(F)c(F)c2F)c2ccc(C(=O)O)c(O)c2)cc(C2CC2)c1` [Compound 1036, 4-(N-(3-(tert-butyl)-5-cyclopropylbenzyl)-2-(N-(2-hydroxybenzyl)-(2,3,4,5,6-pentafluoro-phenyl)sulfonamido)acetamido)-2-hydroxybenzoic acid], the half-maximal inhibitory concentration (IC50) lay within 1 to 3.16 µM.
As for `COc1cccc(CN(CC(=O)N(Cc2cc(C3CC3)cc(C(C)(C)C)c2)c2ccc(C(=O)O)c(O)c2)S(=O)(=O)c2c(F)c(F)c(F)c(F)c2F)c1` [Compound 1038, 4-(N-(3-(tert-butyl)-5-cyclopropylbenzyl)-2-(N-(3-methoxybenzyl)-(2,3,4,5,6-pentafluoro-phenyl)sulfonamido)acetamido)-2-hydroxybenzoic acid], the figure is 3.16 to 100 µM; as for `COC(=O)C(C)(C)c1ccc(N(Cc2cc(C3CC3)cc(C(C)(C)C)c2)C(=O)CN(Cc2ccc(Cl)cc2)S(=O)(=O)c2c(F)c(F)c(F)c(F)c2F)cc1` [Compound 1042, methyl 2-(4-(N-(3-(tert-butyl)-5-cyclopropylbenzyl)-2-(N-(4-chlorobenzyl)-(2,3,4,5,6-pentafluorophenyl)sulfon-amido)acetamido)phenyl)-2-methylpropanoate], 3.16 to 100 µM; as for `COC(=O)c1ccc(N(Cc2cc(C3CC3)cc(C(C)(C)C)c2)C(=O)CN(Cc2ccc(Cl)cc2)S(=O)(=O)c2c(F)c(F)c(F)c(F)c2F)cc1O` [Compound 1051, methyl 4-(N-(3-(tert-butyl)-5-cyclopropylbenzyl)-2-(N-(4-chlorobenzyl)-(2,3,4,5,6-pentafluorophenyl)sulfon-amido)acetamido)-2-hydroxybenzoate], 3.16 to 100 µM.
As for `CC(C)(C)c1cc(CN(C(=O)CN(Cc2ccccc2F)S(=O)(=O)c2c(F)c(F)c(F)c(F)c2F)c2ccc(C(=O)O)cc2NS(C)(=O)=O)cc(C2CC2)c1` [Compound 1059, 4-(N-(3-(tert-butyl)-5-cyclopropylbenzyl)-2-(N-(2-fluorobenzyl)-(2,3,4,5,6-pentafluoro-phenyl)sulfonamido)acetamido)-3-(methylsulfonamido) benzoic acid], the figure is 3.16 to 100 µM; as for `CC(C)Cc1cc(CN(C(=O)CN(Cc2ccccc2F)S(=O)(=O)c2c(F)c(F)c(F)c(F)c2F)c2ccc(C(=O)O)c(O)c2)cc(C2CC2)c1` [Compound 1067, 4-(N-(3-cyclopropyl-5-isobutylbenzyl)-2-(N-(2-fluorobenzyl)-(2,3,4,5,6-pentafluoro-phenyl)sulfonamido)acetamido)-2-hydroxybenzoic acid], 3.16 to 100 µM; as for `CN(C)c1cc(C(=O)O)cc(F)c1N(Cc1cc(C2CC2)cc(C(C)(C)C)c1)C(=O)CN(Cc1ccccc1F)S(=O)(=O)c1c(F)c(F)c(F)c(F)c1F` [Compound 1069, 4-(N-(3-(tert-butyl)-5-cyclopropylbenzyl)-2-(N-(2-fluorobenzyl)-(2,3,4,5,6-pentafluoro-phenyl)sulfonamido)acetamido)-3-(dimethylamino)-5-fluorobenzoic acid], 0.316 to 1 µM.
As for `CC(C)(C)c1cc(CN(C(=O)CN(Cc2ccccc2F)S(=O)(=O)c2c(F)c(F)c(F)c(F)c2F)c2ccc(C(=O)O)cc2NCCCCl)cc(C2CC2)c1` [Compound 1074, 4-(N-(3-(tert-butyl)-5-cyclopropylbenzyl)-2-(N-(2-fluorobenzyl)-(2,3,4,5,6-pentafluoro-phenyl)sulfonamido)acetamido)-3-((3-chloropropyl)amino) benzoic acid], the figure is 1 to 3.16 µM.
